Data reported in patent US4731109A, “Herbicidal 2-haloacetanilides” (Monsanto Company, priority 1982, dated 1988).
Where two headings read alike, the source gives them in different places.

Assays:
[1] = tested on: soybeans; test: Field pre-emergence selectivity test; assay type: in vivo; conditions: Glycine max, 1008 h, 6 weeks, read-out: Percent Inhibition; for inhibition at 560 g/ha: 0.56 Kg/Ha; for inhibition at 1120 g/ha: 1.12 Kg/Ha; for inhibition at 2240 g/ha: 2.24 Kg/Ha; for inhibition at 4480 g/ha: 4.48 Kg/Ha
Procedure: (§1) The compound of Examples 1 and 2 was also tested in the field to determine its pre-emergence selectivity against foxtail (spp), barnyardgrass, wild proso millet, smartweed, lambsquarters and pigweed in a plurality of crops; the data (representing three replicate runs) are shown in Table VII for both surface application (S.A.) and soil incorporation (PPI, i.e., preplant incorporation) of the herbicide. The seeds were planted in a fine seedbed of silt loam of intermediate moisture. The seeds were planted at a depth of two inches (5.08 cm). First rainfall (0.2"; 0.51 cm) occurred the day following treatment, the second rain (0.25"; […]) two days after treatment; cumulative rainfall 22 days after treatment was 1.8" (4.57 cm). Observations were made 6 weeks after treatment.

[2] = tested on: foxtail (spp); test: Field pre-emergence selectivity test; assay type: in vivo; conditions: Setaria, 1008 h, 6 weeks, read-out: Percent Inhibition; for inhibition at 560 g/ha: 0.56 Kg/Ha; for inhibition at 1120 g/ha: 1.12 Kg/Ha; for inhibition at 2240 g/ha: 2.24 Kg/Ha; for inhibition at 4480 g/ha: 4.48 Kg/Ha
Procedure: as §1

[3] = tested on: rape; test: Field pre-emergence selectivity test; assay type: in vivo; conditions: 1008 h, 6 weeks, read-out: Percent Inhibition; for inhibition at 560 g/ha: 0.56 Kg/Ha; for inhibition at 1120 g/ha: 1.12 Kg/Ha; for inhibition at 2240 g/ha: 2.24 Kg/Ha; for inhibition at 4480 g/ha: 4.48 Kg/Ha
Procedure: as §1

[4] = tested on: Barnyardgrass; test: Field pre-emergence selectivity test; assay type: in vivo; conditions: Echinochloa crus-galli, 1008 h, 6 weeks, read-out: Percent Inhibition; for inhibition at 560 g/ha: 0.56 Kg/Ha; for inhibition at 1120 g/ha: 1.12 Kg/Ha; for inhibition at 2240 g/ha: 2.24 Kg/Ha; for inhibition at 4480 g/ha: 4.48 Kg/Ha
Procedure: as §1

[5] = tested on: pigweed; test: Field pre-emergence selectivity test; assay type: in vivo; conditions: Amaranthus retroflexus, 1008 h, 6 weeks, read-out: Percent Inhibition; for inhibition at 560 g/ha: 0.56 Kg/Ha; for inhibition at 1120 g/ha: 1.12 Kg/Ha; for inhibition at 2240 g/ha: 2.24 Kg/Ha; for inhibition at 4480 g/ha: 4.48 Kg/Ha
Procedure: as §1

[6] = tested on: Bush Bean; test: Field pre-emergence selectivity test; assay type: in vivo; conditions: 1008 h, 6 weeks, read-out: Percent Inhibition; for inhibition at 560 g/ha: 0.56 Kg/Ha; for inhibition at 1120 g/ha: 1.12 Kg/Ha; for inhibition at 2240 g/ha: 2.24 Kg/Ha; for inhibition at 4480 g/ha: 4.48 Kg/Ha
Procedure: as §1

[7] = tested on: snap beans; test: Greenhouse pre-emergence GR15/GR85 selectivity test; assay type: in vivo; conditions: Table VI
From the text: A good grade of top soil is placed in aluminum pans and compacted to a depth of three-eighths to one-half inch from the top of the pan. On the top of the soil is placed a number of seeds or vegetative propagules of various plant species. The soil required to level fill the pans after seeding or adding vegetative propagules is weighed into a pan. The soil and a known amount of the active ingredient applied in a solvent or as a wettable powder suspension are thoroughly mixed, and used to cover the prepared pans. After treatment, the pans are given an initial overhead irrigation of eater, equivalent to one-fourth inch (0.64 cm) rainfall, then watered by subirrigation as need to give adequate moisture for germination and growth. As an alternative procedure, the overhead irrigation may be omitted. Observations are made about 2-3 weeks after seeding and treatment.
In the discussion and tables of data below, reference is made to herbicide application rates symbolized as "GR15 " and "GR85 "; these rates are given in kilograms per hectare (kg/ha) which are convertible into pounds per acre (lbs/A) by dividing the kg/ha rate by 1.12.
A further guide to the effectiveness of a chemical as a selective herbicide is the "selectivity factor" ("SF") for a herbicide in given crops and weeds. […]

[8] = tested on: soybeans; test: as above; assay type: in vivo; conditions: for GR15 Rate: Table XIV
Outline: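 Active ingredient mixed into cover soil over seeded pans (pre-emergence soil incorporation), initial overhead irrigation equal to 0.64 cm rainfall, then subirrigation. Scored about 2-3 weeks after seeding; GR15 (crop) and GR85 (weed) rates in kg/ha, selectivity factor = crop GR15 / weed GR85.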

[9] = Toxicology studies, eye irritation; conditions: in vivo
From the text: (§2) Toxicology studies on the compound of Example 1 have indicated the compound to be quite safe. […] No special handling procedures beyond normal precautions are deemed necessary.

[10] = Toxicology studies, LD50; conditions: in vivo
From the text: as §2

[11] = Toxicology studies, skin irritation; conditions: in vivo
From the text: as §2

CC(C)OCN(C(=O)CCl)c1ccccc1C(F)(F)F [Example 2, N--(isopropoxymethyl)-2'-trifluoromethyl-2-chloroacetanilide]
inhibition at 560 g/ha ([1]; P.P.I.): 3% | inhibition at 1120 g/ha ([1]; P.P.I.): 0% | inhibition at 2240 g/ha ([1]; P.P.I.): 13% | inhibition at 4480 g/ha ([1]; P.P.I.): 28% | inhibition at 560 g/ha ([1]; S.A.): 0% | inhibition at 1120 g/ha ([1]; S.A.): 0% | inhibition at 2240 g/ha ([1]; S.A.): 3% | inhibition at 4480 g/ha ([1]; S.A.): 10% | inhibition at 560 g/ha ([2]; P.P.I.): 77% | inhibition at 1120 g/ha ([2]; P.P.I.): 78% | inhibition at 2240 g/ha ([2]; P.P.I.): 87% | inhibition at 4480 g/ha ([2]; P.P.I.): 100% | inhibition at 560 g/ha ([2]; S.A.): 50% | inhibition at 1120 g/ha ([2]; S.A.): 85% | inhibition at 2240 g/ha ([2]; S.A.): 90% | inhibition at 4480 g/ha ([2]; S.A.): 97% | inhibition at 560 g/ha ([3]; P.P.I.): 0% | inhibition at 1120 g/ha ([3]; P.P.I.): 15% | inhibition at 2240 g/ha ([3]; P.P.I.): 27% | inhibition at 4480 g/ha ([3]; P.P.I.): 35% | inhibition at 560 g/ha ([3]; S.A.): 0% | inhibition at 1120 g/ha ([3]; S.A.): 5% | inhibition at 2240 g/ha ([3]; S.A.): 0% | inhibition at 4480 g/ha ([3]; S.A.): 30% | inhibition at 560 g/ha ([4]; P.P.I.): 85% | inhibition at 1120 g/ha ([4]; P.P.I.): 88% | inhibition at 2240 g/ha ([4]; P.P.I.): 95% | inhibition at 4480 g/ha ([4]; P.P.I.): 100% | inhibition at 560 g/ha ([4]; S.A.): 50% | inhibition at 1120 g/ha ([4]; S.A.): 87% | inhibition at 2240 g/ha ([4]; S.A.): 90% | inhibition at 4480 g/ha ([4]; S.A.): 97% | inhibition at 560 g/ha ([5]; P.P.I.): 33% | inhibition at 1120 g/ha ([5]; P.P.I.): 85% | inhibition at 2240 g/ha ([5]; P.P.I.): 85% | inhibition at 4480 g/ha ([5]; P.P.I.): 88% | inhibition at 560 g/ha ([5]; S.A.): 0% | inhibition at 1120 g/ha ([5]; S.A.): 0% | inhibition at 560 g/ha ([6]; P.P.I.): 5% | inhibition at 1120 g/ha ([6]; P.P.I.): 13% | inhibition at 2240 g/ha ([6]; P.P.I.): 22% | inhibition at 4480 g/ha ([6]; P.P.I.): 63% | inhibition at 560 g/ha ([6]; S.A.): 0% | inhibition at 1120 g/ha ([6]; S.A.): 0% | inhibition at 2240 g/ha ([6]; S.A.): 5% | inhibition at 4480 g/ha ([6]; S.A.): 33% | GR15 Rate [7]: 2.2 Kg/Ha | GR15 Rate [8]: > 1.1 Kg/Ha

CCOCN(C(=O)CCl)c1c(C)cccc1C(F)(F)F [Example 1, N-(ethoxymethyl)-2'-trifluoromethyl-6'-methyl-2-chloroacetanilide]
inhibition at 560 g/ha ([1]; P.P.I.): 5% | inhibition at 1120 g/ha ([1]; P.P.I.): 7% | inhibition at 2240 g/ha ([1]; P.P.I.): 20% | inhibition at 4480 g/ha ([1]; P.P.I.): 40% | inhibition at 560 g/ha ([1]; S.A.): 0% | inhibition at 1120 g/ha ([1]; S.A.): 5% | inhibition at 2240 g/ha ([1]; S.A.): 0% | inhibition at 4480 g/ha ([1]; S.A.): 13% | inhibition at 560 g/ha ([2]; P.P.I.): 75% | inhibition at 1120 g/ha ([2]; P.P.I.): 90% | inhibition at 2240 g/ha ([2]; P.P.I.): 98% | inhibition at 4480 g/ha ([2]; P.P.I.): 100% | inhibition at 560 g/ha ([2]; S.A.): 62% | inhibition at 1120 g/ha ([2]; S.A.): 92% | inhibition at 2240 g/ha ([2]; S.A.): 93% | inhibition at 4480 g/ha ([2]; S.A.): 98% | inhibition at 560 g/ha ([3]; P.P.I.): 0% | inhibition at 1120 g/ha ([3]; P.P.I.): 0% | inhibition at 2240 g/ha ([3]; P.P.I.): 15% | inhibition at 4480 g/ha ([3]; P.P.I.): 40% | inhibition at 560 g/ha ([3]; S.A.): 0% | inhibition at 1120 g/ha ([3]; S.A.): 0% | inhibition at 2240 g/ha ([3]; S.A.): 5% | inhibition at 4480 g/ha ([3]; S.A.): 33% | inhibition at 560 g/ha ([4]; P.P.I.): 75% | inhibition at 1120 g/ha ([4]; P.P.I.): 93% | inhibition at 2240 g/ha ([4]; P.P.I.): 98% | inhibition at 4480 g/ha ([4]; P.P.I.): 100% | inhibition at 560 g/ha ([4]; S.A.): 63% | inhibition at 1120 g/ha ([4]; S.A.): 93% | inhibition at 2240 g/ha ([4]; S.A.): 93% | inhibition at 4480 g/ha ([4]; S.A.): 98% | inhibition at 560 g/ha ([5]; P.P.I.): 50% | inhibition at 1120 g/ha ([5]; P.P.I.): 85% | inhibition at 2240 g/ha ([5]; P.P.I.): 85% | inhibition at 4480 g/ha ([5]; P.P.I.): 95% | inhibition at 560 g/ha ([5]; S.A.): 0% | inhibition at 1120 g/ha ([5]; S.A.): 0% | inhibition at 560 g/ha ([6]; P.P.I.): 23% | inhibition at 1120 g/ha ([6]; P.P.I.): 10% | inhibition at 2240 g/ha ([6]; P.P.I.): 37% | inhibition at 4480 g/ha ([6]; P.P.I.): 43% | inhibition at 560 g/ha ([6]; S.A.): 0% | inhibition at 1120 g/ha ([6]; S.A.): 8% | inhibition at 2240 g/ha ([6]; S.A.): 20% | inhibition at 4480 g/ha ([6]; S.A.): 32% | GR15 Rate [7]: 0.90 Kg/Ha | GR15 Rate [8]: > 1.1 Kg/Ha | GR15 ([8]; soybeans/purple nutsedge): 1.1 kg/ha | eye irritation [9]: slight eye irritation | toxicity [10]: slightly toxic | LD50 ([10]; po, read-out: OLD50): 2300 mg/kg | LD50 ([10]; read-out: MLD50): > 5010 mg/kg | skin irritation [11]: no skin irritation
